In brackets after ≈: the same amount, converted by molar mass. Several values for one entry are separate records, joined by “and”; a condition that tells them apart may be missing. Equal values may be shown once. Read-outs that look alike come from different tables or passages of the source.
Experiments:
[1] = target: T1, Co(II)-substituted E. coli PDF (Escherichia coli, UniProt P0A6K3); test: PDF assay coupled to formate dehydrogenase; assay type: biochemical
T1 construct: made in house

[2] = tested on: E. coli; test: Antibacterial activity (cell growth, MIC); assay type: cell-based; details: Escherichia coli
Description: (§1) FIG. 5 Inhibition of B. subtilis (A) and E. coli (B) cell growth by inhibitor 2. An overnight culture was diluted 1000-fold into 2 mL of fresh LB medium containing the specified concentrations of inhibitor 2 and incubated at 37° C. Cell densities were measured at the specified times on a UV-vis spectrophotometer.
(§2) The in vitro antibacterial activity of the cyclic inhibitor was tested against E. coli and Bacillus subtilis, the representative Gram-negative and Gram-positive bacteria, respectively.
(§3) Antimicrobial Susceptibility Testing. For Escherichia coli and Bacillus subtilis, cell growth was monitored on the Lambda-20 UV/Vis spectrophotometer at 600 nm. A single bacterial colony from a plate culture was grown overnight in LB media and was diluted 1000-fold into 2 mL of fresh growth medium containing 0-64 μg/mL of test agent in a 5-mL glass test tube shaken at a speed of 250 rpm. Cell growth (at 37° C.) was monitored for 0-600 min.
(§4) Antibacterial Activity of PDF Inhibitors Inhibitors 2-7E were tested against two or more bacterial strains for antibacterial activities.

[3] = tested on: B. subtilis; test: Antibacterial activity (cell growth, MIC); assay type: cell-based; details: Bacillus subtilis
Description: as §1, §2, §3, §4

[4] = tested on: human matrix metalloproteases; test: Inhibition of human matrix metalloproteases, overall statement; assay type: biochemical; details: MMP-1, MMP2, MMP-3, MMP-9; 1.0 and 10 μM
Description: Inhibition of Metalloproteases (MMP) Several of the inhibitors were tested for inhibition of human matrix metalloproteases, which are often used as indicators of inhibitor selectivity (no inhibition of MMP is desired). Each inhibitor was tested at two different concentrations (1.0 and 10 μM). The values reported are the percentage of MMP activity remaining in the presence of added inhibitor. […] The acyclic inhibitors are flexible and can adopt different conformations to fit the active sites of both PDF and MMP's.

[5] = target: T2, MMP2 (Homo sapiens, UniProt P08253); test: Inhibition of human matrix metalloproteases; assay type: biochemical; details: read-out: percentage of MMP2 activity remaining; for remaining activity at 1 µM: inhibitor 1.0 μM; for remaining activity at 10 µM: inhibitor 10 μM
T2 sequence (P08253 110-660): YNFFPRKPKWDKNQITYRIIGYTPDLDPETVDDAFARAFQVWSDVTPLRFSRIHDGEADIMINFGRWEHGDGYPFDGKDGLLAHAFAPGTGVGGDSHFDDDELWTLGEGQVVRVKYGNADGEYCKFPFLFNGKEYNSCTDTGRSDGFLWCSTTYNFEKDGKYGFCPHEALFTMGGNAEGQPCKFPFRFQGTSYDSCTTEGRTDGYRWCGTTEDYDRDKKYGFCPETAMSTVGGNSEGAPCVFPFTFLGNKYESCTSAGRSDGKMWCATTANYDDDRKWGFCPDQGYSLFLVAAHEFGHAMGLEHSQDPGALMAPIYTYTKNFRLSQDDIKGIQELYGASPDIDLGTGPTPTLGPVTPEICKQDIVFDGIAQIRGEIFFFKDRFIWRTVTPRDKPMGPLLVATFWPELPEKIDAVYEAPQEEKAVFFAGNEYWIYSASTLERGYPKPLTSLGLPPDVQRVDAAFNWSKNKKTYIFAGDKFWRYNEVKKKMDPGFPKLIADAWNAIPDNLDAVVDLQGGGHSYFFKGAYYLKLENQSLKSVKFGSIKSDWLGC
Description: (§5) Inhibition of Metalloproteases (MMP) Several of the inhibitors were tested for inhibition of human matrix metalloproteases, which are often used as indicators of inhibitor selectivity (no inhibition of MMP is desired). Each inhibitor was tested at two different concentrations (1.0 and 10 μM). The values reported are the percentage of MMP activity remaining in the presence of added inhibitor.

[6] = target: T3, MMP-1 (Homo sapiens, UniProt P03956); test: Inhibition of human matrix metalloproteases; assay type: biochemical; details: read-out: percentage of MMP-1 activity remaining; for remaining activity at 1 µM: inhibitor 1.0 μM; for remaining activity at 10 µM: inhibitor 10 μM
T3 sequence (P03956 100-469): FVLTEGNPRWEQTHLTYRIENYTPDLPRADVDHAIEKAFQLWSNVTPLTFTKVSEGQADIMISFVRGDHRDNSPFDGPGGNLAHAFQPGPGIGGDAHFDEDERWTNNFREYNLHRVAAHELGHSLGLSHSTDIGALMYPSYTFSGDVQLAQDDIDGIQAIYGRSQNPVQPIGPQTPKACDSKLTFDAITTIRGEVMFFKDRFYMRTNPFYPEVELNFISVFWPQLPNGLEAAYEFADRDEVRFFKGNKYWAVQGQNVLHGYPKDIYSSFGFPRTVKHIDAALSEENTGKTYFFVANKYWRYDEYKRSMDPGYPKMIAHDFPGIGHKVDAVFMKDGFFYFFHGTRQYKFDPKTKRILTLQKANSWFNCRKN
Description: as §5

[7] = target: MMP-3 (Homo sapiens, UniProt P08254); test: Inhibition of human matrix metalloproteases; assay type: biochemical; details: read-out: percentage of MMP-3 activity remaining; for remaining activity at 1 µM: inhibitor 1.0 μM; for remaining activity at 10 µM: inhibitor 10 μM
Description: as §5

[8] = target: MMP-9 (Homo sapiens, UniProt P14780); test: Inhibition of human matrix metalloproteases; assay type: biochemical; details: read-out: percentage of MMP-9 activity remaining; for remaining activity at 1 µM: inhibitor 1.0 μM; for remaining activity at 10 µM: inhibitor 10 μM
Description: as §5

[9] = Stability of inhibitors in rat plasma; assay type: in vitro ADME; details: 37° C., LC-MS
Description: FIG. 7 Comparison of the in vitro stability of PDF inhibitors 6 (cyclic) and 9 (acyclic) in rat plasma.
Stability of Inhibitors Inhibitors 6E and comparative compound 9 were chosen to test for the effect of cyclization on inhibitor stability. They both have an L-lysine as the P2′ residue and are expected to be sensitive to proteolytic degradation by trypsin-like enzymes. Both inhibitors were incubated in rat plasma at 37° C. and aliquots were withdrawn at various times and analyzed by LC-MS. […] Our attempts to identify the degradation products by mass spectrometry failed.

[10] = target: T4, E. coli PDF (Escherichia coli, UniProt P0A6K3); test: Aminopeptidase assay of PDF inhibition; assay type: biochemical
T4 construct: made in house
Description: Aminopeptidase Assay of Compound 2 The inhibition constant was also determined independently using and aminopeptidase assay.^37 Assay reactions (total volume of 500 μL) containing 50 mM Hepes (pH 7.0), 150 mM NaCl, 8.0 nM E. coli PDF, and 0-50 nM inhibitor 2 were incubated on ice for 2 h. Prior to reaction initiation, the mixture was brought to room temperature for 10 min. The PDF reaction was then initiated by the addition of substrate formyl-Met-Leu-p-nitronilide (final concentration 110 μM) and allowed to proceed for 3 min at room temperature before being quenched by heating at 95° C. for 10 min (the inactivation process is usually complete within the first 30 s). After cooling to room temperature, 1.0 unit of Aeromonas aminopeptidase (AAP) was added to the solution and the mixture was incubated for 15 min at room temperature. The absorbance at 405 nm was measured on a UV-Vis spectrophotometer. […] For all end-point assay reactions, the substrate to product conversion was kept at <20%.

[11] = tested on: S. pneumoniae (ATCC 6301); test: Antibacterial activity (MIC); assay type: cell-based; details: Streptococcus pneumoniae, ATCC6301
Description: as §4

[12] = tested on: E. faecalis (ATCC 29212); test: Antibacterial activity (MIC); assay type: cell-based; details: Enterococcus faecalis, ATCC29212
Description: as §4

[13] = tested on: S. aureus (ATCC 29213); test: Antibacterial activity (MIC); assay type: cell-based; details: Staphylococcus aureus, ATCC29213
Description: as §4

[14] = tested on: M. catarrhalis (ATCC 37054); test: Antibacterial activity (MIC); assay type: cell-based; details: Moraxella catarrhalis, ATCC37054
Description: as §4

[15] = tested on: H. influenzae (ATCC 31517); test: Antibacterial activity (MIC); assay type: cell-based; details: Haemophilus influenzae, ATCC31517
Description: as §4

[16] = tested on: S. pneumoniae (ATCC 49619); test: Antibacterial activity (MIC); assay type: cell-based; details: Streptococcus pneumoniae, ATCC49619
Description: as §4

[17] = tested on: S. pneumoniae (ATCC 6303); test: Antibacterial activity (MIC); assay type: cell-based; details: Streptococcus pneumoniae, ATCC6303
Description: as §4

Chain of MMP-9 (P14780 94-707): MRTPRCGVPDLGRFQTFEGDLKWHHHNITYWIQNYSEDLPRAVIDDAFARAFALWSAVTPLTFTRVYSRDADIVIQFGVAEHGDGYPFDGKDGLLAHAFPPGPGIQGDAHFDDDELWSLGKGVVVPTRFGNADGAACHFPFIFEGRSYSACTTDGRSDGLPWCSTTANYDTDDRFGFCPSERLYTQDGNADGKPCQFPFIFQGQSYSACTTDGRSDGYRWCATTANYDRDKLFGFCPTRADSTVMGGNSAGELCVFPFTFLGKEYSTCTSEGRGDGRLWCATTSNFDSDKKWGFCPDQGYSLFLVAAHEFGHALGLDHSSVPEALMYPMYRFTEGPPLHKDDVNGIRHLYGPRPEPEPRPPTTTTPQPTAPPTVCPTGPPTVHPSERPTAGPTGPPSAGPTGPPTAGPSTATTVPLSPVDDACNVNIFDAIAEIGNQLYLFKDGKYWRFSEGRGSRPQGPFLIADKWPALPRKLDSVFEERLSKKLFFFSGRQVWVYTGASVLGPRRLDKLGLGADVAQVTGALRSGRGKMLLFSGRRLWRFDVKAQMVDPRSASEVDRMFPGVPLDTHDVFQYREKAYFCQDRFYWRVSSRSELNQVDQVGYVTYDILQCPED
Chain of MMP-3 (P08254 100-477): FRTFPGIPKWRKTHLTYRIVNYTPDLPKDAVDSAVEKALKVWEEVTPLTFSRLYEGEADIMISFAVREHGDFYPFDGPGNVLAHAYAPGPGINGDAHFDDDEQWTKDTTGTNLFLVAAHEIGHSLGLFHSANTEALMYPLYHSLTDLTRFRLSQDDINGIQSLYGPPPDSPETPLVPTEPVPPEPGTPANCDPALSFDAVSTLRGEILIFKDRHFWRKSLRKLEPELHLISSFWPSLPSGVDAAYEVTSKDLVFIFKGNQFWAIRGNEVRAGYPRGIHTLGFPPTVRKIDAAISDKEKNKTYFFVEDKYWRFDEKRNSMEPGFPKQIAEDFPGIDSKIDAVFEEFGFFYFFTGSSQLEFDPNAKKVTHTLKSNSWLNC
T1 sequence (P0A6K3 whole entry): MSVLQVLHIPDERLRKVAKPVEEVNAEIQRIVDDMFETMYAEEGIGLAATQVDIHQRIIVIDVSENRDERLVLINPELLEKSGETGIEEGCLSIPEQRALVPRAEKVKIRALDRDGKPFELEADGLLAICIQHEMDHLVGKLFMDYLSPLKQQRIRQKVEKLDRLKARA
T4 sequence (P0A6K3 whole entry): as above

| Compound | Ki [1] | MIC [2] | MIC ([3]; read-out: MIC) | inhibition of the MMPs (in words) [4] | remaining activity at 1 µM [5] | remaining activity at 10 µM [5] | remaining activity at 1 µM [6] | remaining activity at 10 µM [6] | remaining activity at 1 µM [7] | remaining activity at 10 µM [7] | remaining activity at 1 µM [8] | remaining activity at 10 µM [8] | degradation (loss) in rat plasma after 5 h [9] | MIC [11] | MIC [12] | MIC [13] | MIC [14] | MIC [15] | MIC [16] | MIC [17] | other results |
| --- | --- | --- | --- | --- | --- | --- | --- | --- | --- | --- | --- | --- | --- | --- | --- | --- | --- | --- | --- | --- | --- |
| CC(C)(C)[C@@H]1NC(=O)[C@@H](CN(O)C=O)CCCCCCCCCCCNC1=O [Compound 4E] | 0.22 nM | > 24 µg/mL | ~0.2 µg/mL | – | – | – | – | – | – | – | – | – | – | – | – | – | – | – | – | – | – |
| CCCC[C@H](CN(O)C=O)C(=O)N[C@@H](CCCCN)C(=O)Nc1ccccc1 [Compound 10C, reference compound] | 18 ± 1 nM | – | – | substantial inhibition of all of the MMP's | 66% | 45% | 50% | 3% | 32% | 27% | 46% | 11% | – | – | – | – | – | – | – | – | – |
| CCCCCCNC(=O)[C@H](CCCCN)NC(=O)[C@H](CCCCC)CN(O)C=O [Compound 9C, reference compound] | – | – | – | substantial inhibition of all of the MMP's | 27% | 2% | 50% | 0% | 19% | 1% | 39% | 6% | approximately 25% | – | – | – | – | – | – | – | – |
| NCCCC[C@@H]1NC(=O)[C@@H](CN(O)C=O)CCCCCCCCCNC1=O [Compound 6E] | 3 ± 1.3 nM | 4 to 8 µg/mL (≈ 10.4 to 20.8 µM) | ~8 µg/mL | – | – | – | – | – | – | – | – | – | no detectable degradation | – | – | – | – | – | – | – | – |
| CC(C)(C)C1NC(=O)C(CN(O)C=O)CCCCCCCCCNC1=O (stereo not drawn) [Compound 2, N-(3-tert-Butyl-2,5-dioxo-1,4-diaza-cyclopentadec-6-ylmethyl)-N-hydroxy-formamide] | 0.67 ± 0.2 nM | ~32 µM and ~12 µg/mL | 0.7 to 1.4 µg/mL | – | 96% | 92% | 93% | 86% | 97% | 91% | 95% | 91% | – | 4 µg/mL (≈ 10.8 µM) | > 32 µg/mL | 16 µg/mL (≈ 43.3 µM) | 0.62 µg/mL (≈ 1.68 µM) | 0.5 µg/mL (≈ 1.35 µM) | 4 µg/mL (≈ 10.8 µM) | 2 µg/mL (≈ 5.41 µM) | fold more potent against PDF than the acyclic parent/counterpart ([1]; cyclic versus acyclic inhibitor): ~10 fold; Ki [10]: 0.33 ± 0.15 nM; MIC ([3]; read-out: minimal inhibitory concentration (MIC)): 2 to 4 µM |
| NCCCC[C@@H]1NC(=O)[C@@H](CN(O)C=O)CCCCCCCCCCCCCCNC1=O [Compound 7E] | 36 ± 9 nM | > 32 µg/mL | > 32 µg/mL | – | 94% | 85% | 99% | 93% | 100% | 94% | 96% | 95% | – | > 32 µg/mL | 32 µg/mL (≈ 70.4 µM) | 32 µg/mL (≈ 70.4 µM) | 1 µg/mL (≈ 2.2 µM) | 32 µg/mL (≈ 70.4 µM) | > 32 µg/mL | > 32 µg/mL | – |
